According to ChEMBL document CHEMBL1201862, “PubChem BioAssay data set” (2004):
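96-well plates; 48 h exposure; 5 concentrations. Endpoints by linear interpolation between flanking doses. Not reached: highest tested concentration assigned. Abbreviation: GI50, concentration required for 50% inhibition of growth.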 Calls of active or inactive are those of the source. Rule as the data show it: active = GI50 up to about 1.1 µM and inactive = higher.

Key:
Experiment in all cases: NCI-60 cell line screen, 48 h
786-0 = test system: 786-0
A498 = test system: A498
A549 = test system: A549
BT-549 = test system: BT-549
CAKI-1 = test system: CAKI-1
COLO 205 = test system: COLO 205
EKVX = test system: EKVX
HCC 2998 = test system: HCC 2998
IGROV-1 = test system: IGROV-1
M14 = test system: M14
MDA-MB-435 = test system: MDA-MB-435
NCI/ADR-RES = test system: NCI/ADR-RES
RXF 393 = test system: RXF 393
SK-MEL-2 = test system: SK-MEL-2
T47D = test system: T47D
TK-10 = test system: TK-10
U-251 = test system: U-251
HL-60 = test system: HL-60
OVCAR-4 = test system: OVCAR-4

Measured: GI50

S=C(N/N=C\C=N/NC(=S)N1CCCCCC1)N1CCCCCC1
inactive: 786-0 14.3 µM | A498 57.3 µM | A549 6.85 µM | BT-549 > 100 µM | CAKI-1 > 26.7 µM | COLO 205 15.9 µM | EKVX > 57.3 µM | HCC 2998 > 64.9 µM | IGROV-1 26 µM | M14 18.1 µM | MDA-MB-435 42.8 µM | NCI/ADR-RES 15.6 µM | RXF 393 20.6 µM | SK-MEL-2 17.1 µM | T47D 1.44 µM | TK-10 57.9 µM | U-251 5.21 µM

O=c1c(Cl)c(Cl)c(=O)c2sc3cc(Cl)ccc3[nH]c1=2
inactive: 786-0 > 100 µM | A498 > 100 µM | A549 > 100 µM | BT-549 2.81 µM | CAKI-1 > 100 µM | COLO 205 90.4 µM | EKVX 14 µM | HL-60 7.73 µM | IGROV-1 10.5 µM | M14 40.5 µM | MDA-MB-435 34 µM | NCI/ADR-RES 5.36 µM | OVCAR-4 5.66 µM | RXF 393 66.4 µM | SK-MEL-2 > 100 µM | T47D 25.9 µM | TK-10 65.6 µM | U-251 31.4 µM

CCOP1(=O)OCC2OC(n3cnc4c(N)ncnc43)C(O)C2O1.c1ccccc1 (stereo unspecified)
inactive: 786-0 > 100 µM | A498 > 100 µM | A549 > 100 µM | BT-549 > 100 µM | CAKI-1 > 100 µM | COLO 205 > 100 µM | EKVX > 100 µM | HL-60 > 100 µM | IGROV-1 > 100 µM | M14 > 100 µM | MDA-MB-435 > 100 µM | NCI/ADR-RES > 100 µM | OVCAR-4 > 100 µM | RXF 393 > 100 µM | SK-MEL-2 > 100 µM | T47D > 100 µM | TK-10 > 100 µM | U-251 > 100 µM

Cc1cc(C)c2nc3c(c(C(O)C4CCCCN4)c2c1)CC/C3=C\c1ccc(Cl)cc1 (stereo unspecified)
inactive: 786-0 67.8 µM | A498 > 100 µM | A549 76 µM | BT-549 > 100 µM | CAKI-1 94.6 µM | COLO 205 41 µM | EKVX 43.2 µM | HL-60 10.7 µM | IGROV-1 84.1 µM | M14 75.9 µM | MDA-MB-435 55.1 µM | NCI/ADR-RES 52.1 µM | OVCAR-4 58.9 µM | RXF 393 27.7 µM | SK-MEL-2 64.9 µM | T47D 30.3 µM | TK-10 > 100 µM | U-251 60.4 µM

CC(=O)n1[nH]c(=O)n(-c2ccc(Cl)cc2)c1=O
inactive: 786-0 > 100 µM | A549 > 100 µM | BT-549 > 100 µM | CAKI-1 > 100 µM | COLO 205 > 100 µM | EKVX > 100 µM | HCC 2998 > 100 µM | HL-60 > 100 µM | IGROV-1 > 100 µM | M14 > 100 µM | MDA-MB-435 > 100 µM | NCI/ADR-RES > 100 µM | OVCAR-4 > 100 µM | RXF 393 > 100 µM | SK-MEL-2 > 100 µM | T47D > 100 µM | TK-10 > 100 µM | U-251 > 100 µM

CCOc1ccc(/N=N/C2C(=O)N(C(=O)CC(=O)Nc3ccc(C)cc3)N=C2C)cc1 (stereo unspecified)
inactive: 786-0 16 µM | A498 13.2 µM | A549 34.7 µM | BT-549 23.6 µM | CAKI-1 26.5 µM | COLO 205 > 100 µM | EKVX 6.68 µM | HCC 2998 19 µM | HL-60 13.1 µM | IGROV-1 15.9 µM | M14 52.7 µM | MDA-MB-435 2.94 µM | NCI/ADR-RES 24.4 µM | OVCAR-4 25.3 µM | SK-MEL-2 26.6 µM | T47D 37.8 µM | TK-10 24.8 µM | U-251 15.1 µM

N=C(N)N/N=C/c1nc2sccn2c1[N+](=O)[O-]
inactive: 786-0 43 µM | A498 56.1 µM | A549 35.4 µM | BT-549 39.9 µM | CAKI-1 > 100 µM | COLO 205 16.2 µM | EKVX 34.2 µM | HL-60 6.58 µM | IGROV-1 60.4 µM | M14 22.6 µM | MDA-MB-435 19.8 µM | NCI/ADR-RES > 100 µM | OVCAR-4 13.7 µM | RXF 393 8.77 µM | SK-MEL-2 19 µM | T47D 18.2 µM | TK-10 85.3 µM | U-251 28.6 µM

N/C(=N\c1ccc(Cl)cc1)NS(=O)(=O)c1cc(Cl)c(Oc2ccc([N+](=O)[O-])cc2Cl)c(Cl)c1
inactive: 786-0 18.9 µM | A498 15.5 µM | A549 17.2 µM | BT-549 17.4 µM | CAKI-1 17.2 µM | COLO 205 16.1 µM | EKVX 16.9 µM | HL-60 16.7 µM | IGROV-1 15.8 µM | M14 18.6 µM | MDA-MB-435 18.4 µM | NCI/ADR-RES 17.2 µM | OVCAR-4 16 µM | RXF 393 15.2 µM | SK-MEL-2 20.5 µM | T47D 14.8 µM | TK-10 18.2 µM | U-251 14.8 µM

CCN(CC)CCCn1c(=O)c2cccnc2n2c3c(=O)n(C)c(=O)n(C)c3nc12
inactive: 786-0 > 100 µM | A549 > 100 µM | BT-549 > 100 µM | CAKI-1 > 100 µM | COLO 205 > 100 µM | EKVX > 100 µM | HCC 2998 > 100 µM | HL-60 > 100 µM | IGROV-1 > 100 µM | M14 > 100 µM | MDA-MB-435 > 100 µM | NCI/ADR-RES > 100 µM | OVCAR-4 > 100 µM | RXF 393 > 100 µM | SK-MEL-2 > 100 µM | T47D > 100 µM | TK-10 > 100 µM | U-251 > 100 µM

Fc1ccc(/N=N/N2CCCC2)cc1
inactive: 786-0 > 100 µM | A498 > 100 µM | A549 > 100 µM | BT-549 41.8 µM | CAKI-1 > 100 µM | COLO 205 > 100 µM | EKVX > 100 µM | HCC 2998 15.5 µM | HL-60 50.4 µM | IGROV-1 82.4 µM | M14 > 100 µM | MDA-MB-435 37.2 µM | OVCAR-4 > 100 µM | RXF 393 > 100 µM | SK-MEL-2 > 100 µM | T47D 19.2 µM | TK-10 62.4 µM | U-251 > 100 µM

COc1ccc2cc(NC(=O)Nn3cnnc3)ccc2c1
inactive: 786-0 > 100 µM | A498 > 100 µM | A549 > 100 µM | BT-549 > 100 µM | CAKI-1 > 100 µM | COLO 205 > 100 µM | EKVX 80.7 µM | HCC 2998 > 100 µM | HL-60 > 100 µM | IGROV-1 > 100 µM | M14 > 100 µM | MDA-MB-435 > 100 µM | OVCAR-4 > 100 µM | SK-MEL-2 > 100 µM | T47D > 100 µM | TK-10 > 100 µM | U-251 > 100 µM

NC(CSC1(c2ccc(Cl)cc2)c2ccccc2-c2ccccc21)C(=O)O (stereo unspecified)
inactive: 786-0 20.8 µM | A498 17.1 µM | A549 31.3 µM | BT-549 18.2 µM | CAKI-1 33.5 µM | COLO 205 15.5 µM | EKVX 67.1 µM | HL-60 6.4 µM | IGROV-1 13.5 µM | M14 26.4 µM | MDA-MB-435 14.4 µM | NCI/ADR-RES 39.1 µM | OVCAR-4 22.2 µM | RXF 393 31.6 µM | SK-MEL-2 20.9 µM | T47D 29 µM | TK-10 24.8 µM | U-251 15.8 µM

c1ccc(/N=C(/Nc2ccccc2)N2CCCC2)cc1
inactive: 786-0 > 100 µM | A549 > 100 µM | BT-549 > 100 µM | CAKI-1 > 100 µM | COLO 205 > 100 µM | EKVX > 100 µM | HL-60 > 100 µM | IGROV-1 > 100 µM | M14 > 100 µM | MDA-MB-435 > 100 µM | NCI/ADR-RES > 100 µM | OVCAR-4 > 100 µM | SK-MEL-2 > 100 µM | T47D > 100 µM | TK-10 > 100 µM | U-251 > 100 µM

COc1ccc(CN(Cc2ccc(OC)cc2)C(=O)CC2(O)CCc3ccccc3C2)cc1 (stereo unspecified)
inactive: 786-0 > 100 µM | A498 > 100 µM | A549 30.1 µM | BT-549 > 100 µM | CAKI-1 43.2 µM | COLO 205 21.8 µM | EKVX 37.5 µM | HCC 2998 68.9 µM | HL-60 17.8 µM | IGROV-1 > 100 µM | M14 66.1 µM | MDA-MB-435 34.8 µM | NCI/ADR-RES 12.9 µM | OVCAR-4 57 µM | SK-MEL-2 60 µM | T47D 8.71 µM | TK-10 > 100 µM | U-251 63.1 µM

Cc1cccc(CNNC(=O)c2cc[n+]([BH2-]C#N)cc2)c1
inactive: 786-0 30.7 µM | A498 24.7 µM | A549 39.1 µM | BT-549 42.5 µM | CAKI-1 32.4 µM | COLO 205 16.5 µM | EKVX 36.4 µM | HCC 2998 22.4 µM | HL-60 22.5 µM | IGROV-1 22 µM | M14 37.9 µM | MDA-MB-435 28.3 µM | NCI/ADR-RES 24.7 µM | OVCAR-4 42 µM | RXF 393 22.4 µM | SK-MEL-2 34.9 µM | TK-10 53.7 µM | U-251 39.5 µM
